# In US7271165B2, “Rifamycin analogs and uses thereof” (priority 2003, dated 2007):
# Key:
# S. aureus = assay: MIC assay, S. aureus; format: cell-based, Staphylococcus aureus
# S. pneumo. = assay: MIC assay, S. pneumo.; format: cell-based, Streptococcus pneumoniae
# E. faecalis = assay: MIC assay, E. faecalis; format: cell-based, Enterococcus faecalis
# H. flu = format: cell-based, H. influenza; conditions: H. flu
# E coli = assay: MIC assay, E coli; format: cell-based
SMILES,MIC (μg/mL) S. aureus (S. aureus) [µg/mL],MIC (μg/mL) S. pneumo. (S. pneumo.) [µg/mL],MIC (μg/mL) E. faecalis (E. faecalis) [µg/mL],MIC (μg/mL) H. flu (H. flu) [µg/mL],MIC (μg/mL) E coli (E coli) [µg/mL]
"COC1C=COC2(C)Oc3c(C)c(O)c4c(=O)c(c5sc6cc(N7CC(C)NC(C)C7)ccc6nc-5c4c3C2=O)NC(=O)C(C)=CC=CC(C)C(O)C(C)C(O)C(C)C(OC(C)=O)C1C [Compound 64, 5′-[(3R,5S)-3,5-dimethyl-1-piperazinyl]benzthiazinorifamycin]",0.004,0.00012,0.12,0.25,4
"COC1C=COC2(C)Oc3c(C)c(O)c4c(=O)c(c5sc6cc(N7CC(C)NC(C)C7)ccc6nc-5c4c3C2=O)NC(=O)C(C)=CC=CC(C)C(O)C(C)C(O)C(C)C(O)C1C [Compound 65, 25-O-deacetyl-5′-[(3R,5S)-3,5-dimethyl-1-piperazinyl]benzthiazinorifamycin]",0.002,0.00025,0.12,0.12,2
"COC1C=COC2(C)Oc3c(C)c(O)c4c(=O)c(c5oc6cc(N7CCC(CCO)CC7)cc(O)c6nc-5c4c3C2=O)NC(=O)C(C)=CC=CC(C)C(O)C(C)C(O)C(C)C(O)C1C (stereo not drawn) [Compound 66, 25-O-deacetyl-3′-hydroxy-5′-[4-(2-hydroxyethyl)-1-piperidinyl]benzoxazinorifamycin]",0.004,0.0005,0.12,0.12,4
CCCS(=O)(=O)NC1CCN(c2cc(O)c3nc4c5c6c7c(C)c(O)c5c(=O)c(c-4oc3c2)NC(=O)C(C)=CC=CC(C)C(O)C(C)C(O)C(C)C(O)C(C)C(OC)C=COC(C)(O7)C6=O)CC1 (stereo not drawn) [Compound 67],0.008,0.001,0.5,0.12,>8
"COC1C=COC2(C)Oc3c(C)c(O)c4c(=O)c(c5sc6cc(N7CC(C)N(CC8CC8)CC7C)ccc6nc-5c4c3C2=O)NC(=O)C(C)=CC=CC(C)C(O)C(C)C(O)C(C)C(OC(C)=O)C1C [Compound 68, 5′-[(2S,5R)-4-(cyclopropylmethyl)-2,5-dimethylpiperazinyl]benzthiazinorifamycin]",0.06,0.0005,2,0.5,>8
"COC1C=COC2(C)Oc3c(C)c(O)c4c(=O)c(c5sc6cc(N7CCC(N(C)C)CC7)ccc6nc-5c4c3C2=O)NC(=O)C(C)=CC=CC(C)C(O)C(C)C(O)C(C)C(OC(C)=O)C1C (stereo not drawn) [Compound 69, 5′-[4-N,N-dimethylamino-1-piperidinyl]benzthiazinorifamycin]",0.015,0.00025,0.5,0.5,4
"COC1C=COC2(C)Oc3c(C)c(O)c4c(=O)c(c5sc6cc(N7CC(C)N(CC8CC8)CC7C)ccc6nc-5c4c3C2=O)NC(=O)C(C)=CC=CC(C)C(O)C(C)C(O)C(C)C(O)C1C [Compound 70, 25-O-deacetyl-5′-[(2S,5R)-4-(cyclopropylmethyl)-2,5-dimethylpiperazinyl]benzthiazinorifamycin]",0.03,0.001,1,1,>8
"COC1C=COC2(C)Oc3c(C)c(O)c4c(=O)c(c5oc6cc(N7CCC(C)(N(C)C)CC7)cc(O)c6nc-5c4c3C2=O)NC(=O)C(C)=CC=CC(C)C(O)C(C)C(O)C(C)C(OC(C)=O)C1C (stereo not drawn) [Compound 71, 3′-hydroxy-5′-[4-methyl-4-N,N-dimethylamino-1-piperidinyl]benzoxazinorifamycin]",0.008,0.00012,0.25,0.5,4
"COC1C=COC2(C)Oc3c(C)c(O)c4c(=O)c(c5oc6cc(N7CCC(C)(NC(C)=O)CC7)cc(O)c6nc-5c4c3C2=O)NC(=O)C(C)=CC=CC(C)C(O)C(C)C(O)C(C)C(OC(C)=O)C1C (stereo not drawn) [Compound 72, 3′-hydroxy-5′-[4-methyl-4-acetylamino-1-piperidinyl]benzoxazinorifamycin]",0.008,0.00025,2,0.5,>8
"COC1C=COC2(C)Oc3c(C)c(O)c4c(=O)c(c5oc6cc(N7CCC(C)(N(C)C)CC7)cc(O)c6nc-5c4c3C2=O)NC(=O)C(C)=CC=CC(C)C(O)C(C)C(O)C(C)C(O)C1C (stereo not drawn) [Compound 73, 25-O-deacetyl-3′-hydroxy-5′-[4-methyl-4-N,N-dimethylamino-1-piperidinyl]benzoxazinorifamycin]",0.002,0.00025,0.03,0.12,2
"COC1C=COC2(C)Oc3c(C)c(O)c4c(=O)c(c5oc6cc(N7CCC(C)(NC(C)=O)CC7)cc(O)c6nc-5c4c3C2=O)NC(=O)C(C)=CC=CC(C)C(O)C(C)C(O)C(C)C(O)C1C (stereo not drawn) [Compound 74, 25-O-deacetyl-3′-hydroxy-5′-[4-methyl-4-acetylamino-1-piperidinyl]benzoxazinorifamycin]",0.03,0.001,0.5,0.12,>8
"COC1C=COC2(C)Oc3c(C)c(O)c4c(=O)c(c5oc6cc(N7CCC(N(C)C)C7)cc(O)c6nc-5c4c3C2=O)NC(=O)C(C)=CC=CC(C)C(O)C(C)C(O)C(C)C(OC(C)=O)C1C [Compound 75, 3′-hydroxy-5′-[(3R)—N,N-dimethylamino-1-pyrrolidinyl]benzoxazinorifamycin]",0.002,0.00012,0.12,0.25,4
"COC1C=COC2(C)Oc3c(C)c(O)c4c(=O)c(c5sc6cc(N7CCN8CCCC8C7)ccc6nc-5c4c3C2=O)NC(=O)C(C)=CC=CC(C)C(O)C(C)C(O)C(C)C(OC(C)=O)C1C [Compound 76, 5′-[(8aS)octahydropyrrolo [1,2-a]pyrazin-2-yl]benzthiazinorifamycin]",0.008,0.00025,0.5,0.25,4
"COC1C=COC2(C)Oc3c(C)c(O)c4c(=O)c(c5sc6cc(N7CCN8CCCC8C7)ccc6nc-5c4c3C2=O)NC(=O)C(C)=CC=CC(C)C(O)C(C)C(O)C(C)C(O)C1C [Compound 77, 25-O-deacetyl-5′-[(8aS)octahydropyrrolo[1,2-a]pyrazin-2-yl]benzthiazinorifamycin]",0.002,0.00025,0.25,0.12,2
COC1C=COC2(C)Oc3c(C)c(O)c4c(=O)c(c5oc6cc(N7CCN(C)CC7)cc(O)c6nc-5c4c3C2=O)NC(=O)C(C)=CC=CC(C)C(O)C(C)C(O)C(C)C(O)C1C (stereo not drawn) [Compound 82],0.002,0.00012,0.015,0.25,4
COC1C=COC2(C)Oc3c(C)c(O)c4c(=O)c(c5oc6cc(N7CCN8CCCC8C7)cc(O)c6nc-5c4c3C2=O)NC(=O)C(C)=CC=CC(C)C(O)C(C)C(O)C(C)C(O)C1C (stereo not drawn) [Compound 83],0.002,0.00025,0.03,0.25,4
COC1C=COC2(C)Oc3c(C)c(O)c4c(=O)c(c5oc6cc(N7CCN8CCCC8C7)cc(O)c6nc-5c4c3C2=O)NC(=O)C(C)=CC=CC(C)C(O)C(C)C(O)C(C)C(O)C1C (stereo not drawn) [Compound 84],0.004,0.00025,0.03,0.25,8
COC1C=COC2(C)Oc3c(C)c(O)c4c(=O)c(c5oc6cc(N7CCN(Cc8ccccc8)CC7)cc(O)c6nc-5c4c3C2=O)NC(=O)C(C)=CC=CC(C)C(O)C(C)C(O)C(C)C(O)C1C (stereo not drawn) [Compound 86],0.03,0.001,>8,8,>8
COC1C=COC2(C)Oc3c(C)c(O)c4c(=O)c(c5oc6cc(N7CC(C)NC(C)C7)cc(O)c6nc-5c4c3C2=O)NC(=O)C(C)=CC=CC(C)C(O)C(C)C(O)C(C)C(O)C1C (stereo not drawn) [Compound 87],0.008,0.0005,0.06,0.25,4
CCC1CN(c2cc(O)c3nc4c5c6c7c(C)c(O)c5c(=O)c(c-4oc3c2)NC(=O)C(C)=CC=CC(C)C(O)C(C)C(O)C(C)C(O)C(C)C(OC)C=COC(C)(O7)C6=O)CC(CC)N1 (stereo not drawn) [Compound 88],0.03,0.0005,0.12,0.25,4
COCCN1CCN(c2cc(O)c3nc4c5c6c7c(C)c(O)c5c(=O)c(c-4oc3c2)NC(=O)C(C)=CC=CC(C)C(O)C(C)C(O)C(C)C(O)C(C)C(OC)C=COC(C)(O7)C6=O)CC1 (stereo not drawn) [Compound 89],0.004,0.00025,0.12,0.25,8
